Values of other authors as cited in patent US5654277A, “Peptides having thrombospondin-like activity and their therapeutic use” (W. R. Grace & Co.-Conn., priority 1995, dated 1997).

System: B16-F10 murine melanoma cells
Settings: C57BL/6 mice

| Substance | inhibition of lung colony formation / metastasis |
| --- | --- |
| GRGDS | dramatically inhibited the formation of lung colonies |
| YIGSR | dramatically inhibited B16-F10 melanoma cell metastasis |
